Measurements from patent US5593991A, “Imidazole compounds, use and process of making” (priority 1995, dated 1997).

System: human PGHS-2 protein expression
Experiment: Prostoglandin endoperoxide synthase-2 (PGHS-2) protein expression in LPS stimulated human monocytes
Assay type: cell-based
Settings: rank order potency similar to that for inhibiting cytokine production
Description: The following assay describes a method for determining the inhibitory effects of compounds of Formula (I) on human PGHS-2 protein expression in LPS stimulated human monocytes
Human peripheral blood monocytes were isolated from buffy coats by centrifugation through Ficoll and Percoll gradients. Cells were seeded at 2×10^6 /well in 24 well plates and allowed to adhere for 1 hour in RPMI supplemented with 1% human AB serum, 20 mM L-glutamine, Penicillin-Streptomycin and 10 mM HEPES. Compounds were added at various concentrations and incubated at 37° C. for 10 minutes. LPS was added at 50 ng/well (to induce enzyme expression) and incubated overnight at 37° C. The supernatant was removed and cells washed once in cold PBS. The cells were lysed in 100 μl of cold lysis buffer(50 mM Tris/HCl pH 7.5, 150 mM NaCl, 1% NP40, 0.5% sodium deoxycholate, 0.1% SDS, […] DNAse, 0.1% TRITON X-100, 1 mM PMSF, 1 mM leupeptin, 1 mM pepstatin). The lysate was centrifuged (10,000×g for 10 min. at 4° C.) to remove debris and the soluble fraction was subjected to SDS PAGE. analysis (12% gel). Protein separated on the gel were transferred onto nitrocellulose membrane by electrophoretic means for 2 hours at 60 volts. The membrane was pretreated for one hour in PBS/0.1% Tween 20 with 5% non-fat dry milk. After washing 3 times in PBS/Tween buffer, the membrane was incubated with a 1:2000 dilution of a monospecific antiserum to PGHS-2 or a 1:1000 dilution of an antiserum to PGHs-1 in PBS/Tween with 1% BSA for one hour with continuous shaking. The membrane was washed 3X in PBS/Tween and then incubated with a 1:3000 dilution of horseradish peroxidase conjugated donkey antiserum to rabbit Ig (Amersham) in PBS/Tween with 1% BSA for one hour with continuous shaking. The membrane was then washed 3X in PBS/Tween and the ECL immunodetection system (Amersham) was used to detect the level of expression of prostaglandin endoperoxide synthases-2.

| SMILES | inhibited LPS induced PGHS-2 protein expression (active) |
| --- | --- |
| Fc1ccc(-c2nc3n(c2-c2ccncc2)CCS3)cc1 [6-(4-Fluorophenyl)-2,3-dihydro-5-(4-pyridinyl)imidazo[2,1-b]thiazole] | active |
| C[C@@H]1C[C@H]2[C@@H]3CCC4=CC(=O)C=C[C@]4(C)[C@@]3(F)[C@@H](O)C[C@]2(C)[C@@]1(O)C(=O)CO [Dexamethasone] | active |
| Fc1ccc(-c2ncn(CCCN3CCOCC3)c2-c2ccncc2)cc1 [Example 1, 1-[3-(4-Morpholinyl)propyl]-4-(4-fluorophenyl)-5-(4-pyridyl)imidazole] | active |

Same assay, conditions: up to 10 uM

| SMILES | inhibition of LPS induced PGHS-2 protein expression (inactive) |
| --- | --- |
| C[S+]([O-])c1ccc(-c2nc3n(c2-c2ccncc2)CCC3)cc1 (stereo not shown) [2-(4-Methylsulfinylphenyl)-3-(4-pyridyl)-6,7-dihydro-(5H)-pyrrolo[1,2-a]imidazole] | inactive |
| CC(Cc1ccc(O)c(O)c1)C(C)Cc1ccc(O)c(O)c1 (stereo not shown) [NDGA] | inactive |
| O=C1CCN(c2ccccc2)N1 [phenidone] | inactive |
| COc1ccc(C2CNC(=O)C2)cc1OC1CCCC1 (stereo not shown) [rolipram] | inactive |
